Data published in patent US20120277299A1, “METHOD FOR MODULATING ION TRANSPORTER” (SUCAMPO AG, priority 2011, published 2012).

Test system: Na^+/K^+/Cl^− cotransporter
Test: 86Rb uptake assay for Na+/K+/Cl− cotransporter activity in A7r5 cells
Assay type: cell-based, Rat
Details: for effect on 86Rb uptake (activation of Na+/K+/Cl− cotransporter): 0.01 μM to 10 μM; for % control activity: 86Rb uptake, 10 min at 37° C.
Description: The effect of Compound 1 ((−)-7-[(2R,4aR,5R,7aR)-2-(1,1-difluoropentyl)-2-hydroxy-6-oxooctahydrocyclopenta[b]pyran-5-yl]heptanoic acid) and Compound 2 ((−)-7-{(2R,4aR,5R,7aR)-2-[(3S)-1,1-difluoro-3-methylpentyl]-2-hydroxy-6-oxooctahydrocyclopenta[b]pyran-5-yl}heptanoic acid) on […] cotransporter were assessed by ^86Rb uptake. Rat aorta-derived smooth muscle cells (A7r5) cells were cultured to sub-confluent on culture dishes and used for the assay. The culture medium was removed and replaced by uptake medium that contains labeled isotope (47 μM ^86Rb) and each compound.
After 10 min incubation at 37° C., uptake medium was removed and extracellular radioactivity was washed using 0.1M […] solution. The cells were harvested in 0.1M NaOH and the radioactivity incorporated by the cells was determined. Compound1 and 2 were tested at concentrations ranging from 0.01 μM to 10 μM and each determination was made in duplicate.

Compound	effect on 86Rb uptake (activation of Na+/K+/Cl− cotransporter)	% control activity (compound 0.01 μM) [%]	% control activity (compound 0.03 μM) [%]	% control activity (compound 0.1 μM) [%]	% control activity (compound 0.3 μM) [%]	% control activity (compound 1 μM) [%]	% control activity (compound 3 μM) [%]	% control activity (compound 10 μM) [%]
CCCCC(F)(F)[C@@]1(O)CC[C@H]2[C@@H](CC(=O)[C@@H]2CCCCCCC(=O)O)O1 [Compound 1, (−)-7-[(2R,4aR,5R,7aR)-2-(1,1-difluoropentyl)-2-hydroxy-6-oxooctahydrocyclopenta[b]pyran-5-yl]heptanoic acid]	increased ^86Rb uptake concentration-dependently	82.7	115.7	122.6	133.2	134.2	152.3	175.5
CC[C@H](C)CC(F)(F)[C@@]1(O)CC[C@H]2[C@@H](CC(=O)[C@@H]2CCCCCCC(=O)O)O1 [Compound 2, (−)-7-{(2R,4aR,5R,7aR)-2-[(3S)-1,1-difluoro-3-methylpentyl]-2-hydroxy-6-oxooctahydrocyclopenta[b]pyran-5-yl}heptanoic acid]	increased ^86Rb uptake concentration-dependently	108.1	143.0	157.4	171.3	168.5	213.6	205.1
